Tested on: IGROV1 complex spheroids (HUVEC, MSC), viability % test/control
Experiment: Anticancer human tumor IGROV1 cell line growth inhibition [GQUAD];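 note: spheroids exposed to compounds for 7 days before readout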;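 for viability, T/C: 100% = DMSO vehicle control viability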
Conditions: for IC50: curve of first compound; for viability, T/C: stronger effect = lower value
Procedure, shortened: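 Multi-cell-type spheroids of tumor cells with HUVEC and mesenchymal stem cells, treated with drug combinations. Concentrations descend in half-log steps from near clinical Cmax, or from 10 microM where Cmax is unknown; viability read-out.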

[1] = second compound 0.0316 µM, first compound 0.0316 µM
[2] = second compound 0.0316 µM, first compound 0.1 µM
[3] = second compound 0.0316 µM, first compound 0.316 µM
[4] = second compound 0.0316 µM, first compound 1 µM
[5] = second compound 0.0316 µM, first compound 3.16 µM
[6] = second compound 0.0316 µM, first compound 10 µM
[7] = second compound 0.1 µM, first compound 0.0316 µM
[8] = second compound 0.1 µM, first compound 0.1 µM
[9] = second compound 0.1 µM, first compound 0.316 µM
[10] = second compound 0.1 µM, first compound 1 µM
[11] = second compound 0.1 µM, first compound 3.16 µM
[12] = second compound 0.1 µM, first compound 10 µM
[13] = second compound 0.316 µM, first compound 0.0316 µM
[14] = second compound 0.316 µM, first compound 0.1 µM
[15] = second compound 0.316 µM, first compound 0.316 µM
[16] = second compound 0.316 µM, first compound 1 µM
[17] = second compound 0.316 µM, first compound 3.16 µM
[18] = second compound 0.316 µM, first compound 10 µM
[19] = second compound 1 µM, first compound 0.0316 µM
[20] = second compound 1 µM, first compound 0.1 µM
[21] = second compound 1 µM, first compound 0.316 µM
[22] = second compound 1 µM, first compound 1 µM
[23] = second compound 1 µM, first compound 3.16 µM
[24] = second compound 1 µM, first compound 10 µM
[25] = second compound 3.16 µM, first compound 0.0316 µM
[26] = second compound 3.16 µM, first compound 0.1 µM
[27] = second compound 3.16 µM, first compound 0.316 µM
[28] = second compound 3.16 µM, first compound 1 µM
[29] = second compound 3.16 µM, first compound 3.16 µM
[30] = second compound 3.16 µM, first compound 10 µM
[31] = second compound 10 µM, first compound 0.0316 µM
[32] = second compound 10 µM, first compound 0.1 µM
[33] = second compound 10 µM, first compound 0.316 µM
[34] = second compound 10 µM, first compound 1 µM
[35] = second compound 10 µM, first compound 3.16 µM
[36] = second compound 10 µM, first compound 10 µM

## CC(C)n1c(=O)n(C)c2cnc3cc(F)c(-c4ccc(OCCCN5CCCCC5)nc4)cc3c21 + Cc1[nH]c2ccc(F)cc2c1-c1nc2c3cccnc3c3ncccc3c2[nH]1
Second compound 0.0316 µM
  IC50: 3520 nM
Second compound 0.1 µM
  IC50: 4100 nM
Second compound 0.316 µM
  IC50: 2080 nM
Second compound 1 µM
  IC50: < 31.6 nM
Second compound 3.16 µM
  IC50: < 31.6 nM
Second compound 10 µM
  IC50: < 31.6 nM
[1]
  viability, T/C: 99.9%
[2]
  viability, T/C: 84.8%
[3]
  viability, T/C: 92.5%
[4]
  viability, T/C: 69%
[5]
  viability, T/C: 55.5%
[6]
  viability, T/C: 18.6%
[7]
  viability, T/C: 81.2%
[8]
  viability, T/C: 91.8%
[9]
  viability, T/C: 82.6%
[10]
  viability, T/C: 62.3%
[11]
  viability, T/C: 65.6%
[12]
  viability, T/C: 20.5%
[13]
  viability, T/C: 76.4%
[14]
  viability, T/C: 88.8%
[15]
  viability, T/C: 78%
[16]
  viability, T/C: 59%
[17]
  viability, T/C: 44.5%
[18]
  viability, T/C: 12.2%
[19]
  viability, T/C: 4%
[20]
  viability, T/C: 4.91%
[21]
  viability, T/C: 5.53%
[22]
  viability, T/C: 4.22%
[23]
  viability, T/C: 5.34%
[24]
  viability, T/C: 3.26%
[25]
  viability, T/C: 4.58%
[26]
  viability, T/C: 4.72%
[27]
  viability, T/C: 4.85%
[28]
  viability, T/C: 5.73%
[29]
  viability, T/C: 4.75%
[30]
  viability, T/C: 1.86%
[31]
  viability, T/C: 4.57%
[32]
  viability, T/C: 6.24%
[33]
  viability, T/C: 5.89%
[34]
  viability, T/C: 5.99%
[35]
  viability, T/C: 4.07%
[36]
  viability, T/C: 2.35%

## CC1COCCN1c1cc(-c2ccnn2C)c2ccnc(-c3ccn[nH]3)c2n1 (stereo unspecified) + Cc1[nH]c2ccc(F)cc2c1-c1nc2c3cccnc3c3ncccc3c2[nH]1
Second compound 0.0316 µM
  IC50: 63.5 nM
Second compound 0.1 µM
  IC50: 52.6 nM
Second compound 0.316 µM
  IC50: < 31.6 nM
Second compound 1 µM
  IC50: < 31.6 nM
Second compound 3.16 µM
  IC50: < 31.6 nM
Second compound 10 µM
  IC50: < 31.6 nM
[1]
  viability, T/C: 81.2%
[2]
  viability, T/C: 29.2%
[3]
  viability, T/C: 13.1%
[4]
  viability, T/C: 5.35%
[5]
  viability, T/C: 5.85%
[6]
  viability, T/C: 3.72%
[7]
  viability, T/C: 66.3%
[8]
  viability, T/C: 29.4%
[9]
  viability, T/C: 12.7%
[10]
  viability, T/C: 6.46%
[11]
  viability, T/C: 4.05%
[12]
  viability, T/C: 3.93%
[13]
  viability, T/C: 48.1%
[14]
  viability, T/C: 14.3%
[15]
  viability, T/C: 5.71%
[16]
  viability, T/C: 5.18%
[17]
  viability, T/C: 4.33%
[18]
  viability, T/C: 3.75%
[19]
  viability, T/C: 3.38%
[20]
  viability, T/C: 3.29%
[21]
  viability, T/C: 4.19%
[22]
  viability, T/C: 4.05%
[23]
  viability, T/C: 4.41%
[24]
  viability, T/C: 2.28%
[25]
  viability, T/C: 3.79%
[26]
  viability, T/C: 4.74%
[27]
  viability, T/C: 3.3%
[28]
  viability, T/C: 2.73%
[29]
  viability, T/C: 3.37%
[30]
  viability, T/C: 1.52%
[31]
  viability, T/C: 4.11%
[32]
  viability, T/C: 3.77%
[33]
  viability, T/C: 3.3%
[34]
  viability, T/C: 3.47%
[35]
  viability, T/C: 2.98%
[36]
  viability, T/C: 2.3%

## CC1COCCN1c1cc(C2(O)CC3CCC(C2)O3)c2cnn(-c3ccn[nH]3)c2n1 (stereo unspecified) + Cc1[nH]c2ccc(F)cc2c1-c1nc2c3cccnc3c3ncccc3c2[nH]1
Second compound 0.0316 µM
  IC50: 37.6 nM
Second compound 0.1 µM
  IC50: 42.3 nM
Second compound 0.316 µM
  IC50: < 31.6 nM
Second compound 1 µM
  IC50: < 31.6 nM
Second compound 3.16 µM
  IC50: < 31.6 nM
Second compound 10 µM
  IC50: < 31.6 nM
[1]
  viability, T/C: 55.6%
[2]
  viability, T/C: 18.9%
[3]
  viability, T/C: 7.44%
[4]
  viability, T/C: 4.8%
[5]
  viability, T/C: 3.59%
[6]
  viability, T/C: 2.02%
[7]
  viability, T/C: 61%
[8]
  viability, T/C: 17.7%
[9]
  viability, T/C: 8.01%
[10]
  viability, T/C: 6.5%
[11]
  viability, T/C: 3.58%
[12]
  viability, T/C: 1.71%
[13]
  viability, T/C: 21.6%
[14]
  viability, T/C: 7.64%
[15]
  viability, T/C: 4.88%
[16]
  viability, T/C: 3.7%
[17]
  viability, T/C: 3.28%
[18]
  viability, T/C: 1.86%
[19]
  viability, T/C: 3%
[20]
  viability, T/C: 3.91%
[21]
  viability, T/C: 3.25%
[22]
  viability, T/C: 3.03%
[23]
  viability, T/C: 3.34%
[24]
  viability, T/C: 1.4%
[25]
  viability, T/C: 3.59%
[26]
  viability, T/C: 4.2%
[27]
  viability, T/C: 3.24%
[28]
  viability, T/C: 3.06%
[29]
  viability, T/C: 3.02%
[30]
  viability, T/C: 1.16%
[31]
  viability, T/C: 3.5%
[32]
  viability, T/C: 2.96%
[33]
  viability, T/C: 4.38%
[34]
  viability, T/C: 2.77%
[35]
  viability, T/C: 3%
[36]
  viability, T/C: 1.15%

Reference: PubChem BioAssay AID2060486 (Molecular Pharmacology Branch, DTP, NCI, 2025)
